Experimental data published in ChEMBL document CHEMBL1671662, “In vitro activities of telavancin and six comparator agents against anaerobic bacterial isolates” (2009).

Key:
Format in all cases: functional
Bacteroides ovatus = assay: Antibacterial activity against Bacteroides ovatus by CLSI M11-A6 agar dilution method in presence of beta-lactamase inhibitor Sulbactam
Clostridium bolteae = assay: Antibacterial activity against Clostridium bolteae by CLSI M11-A6 agar dilution method in presence of beta-lactamase inhibitor Sulbactam; settings: Enterocloster bolteae
[1] = tested on: Bacteroides thetaiotaomicron; assay: Antibacterial activity against Bacteroides thetaiotaomicron by CLSI M11-A6 agar dilution method in presence of beta-lactamase inhibitor Sulbactam
Coriobacterium = assay: Antibacterial activity against […] by CLSI M11-A6 agar dilution method in presence of beta-lactamase inhibitor Sulbactam
[2] = tested on: Bifidobacterium pseudolongum; assay: Antibacterial activity against Bifidobacterium pseudolongum by CLSI M11-A6 agar dilution method in presence of beta-lactamase inhibitor Sulbactam
Bifidobacterium bifidum = assay: Antibacterial activity against Bifidobacterium bifidum by CLSI M11-A6 agar dilution method in presence of beta-lactamase inhibitor Sulbactam

`CC1(C)S[C@@H]2[C@H](NC(=O)[C@H](N)c3ccccc3)C(=O)N2[C@H]1C(=O)O` [AMPICILLIN] was tested, and the MIC50 (Bacteroides ovatus) was 2 µg/mL, the MIC90 (Bacteroides ovatus) was 4 µg/mL and the MIC50 (Clostridium bolteae) was 8 µg/mL. For the same compound, the MIC90 (Clostridium bolteae) was 16 µg/mL, the MIC50 [1] was 4 µg/mL and the MIC90 [1] was 16 µg/mL. The MIC50 (Coriobacterium) was 0.25 µg/mL, the MIC90 (Coriobacterium) was 1 µg/mL and the MIC50 [2] was 0.25 µg/mL. For the same compound, the MIC90 [2] was 1 µg/mL, the MIC50 (Bifidobacterium bifidum) was 0.25 µg/mL and the MIC90 (Bifidobacterium bifidum) was 1 µg/mL.
